Measured values as given in patent publication US12122761B2, “2-azaspiro[3.4]octane derivatives as M4 agonists” (NOVARTIS AG, priority 2019, dated 2024).

Target: T1, Cloned human M1 receptor (CHRM1) stably expressed in HEK293 cells (Homo sapiens, UniProt P11229)
T1 construct: expressed in transfected cells; host or cells: HEK293
T1 sequence (P11229 1-460): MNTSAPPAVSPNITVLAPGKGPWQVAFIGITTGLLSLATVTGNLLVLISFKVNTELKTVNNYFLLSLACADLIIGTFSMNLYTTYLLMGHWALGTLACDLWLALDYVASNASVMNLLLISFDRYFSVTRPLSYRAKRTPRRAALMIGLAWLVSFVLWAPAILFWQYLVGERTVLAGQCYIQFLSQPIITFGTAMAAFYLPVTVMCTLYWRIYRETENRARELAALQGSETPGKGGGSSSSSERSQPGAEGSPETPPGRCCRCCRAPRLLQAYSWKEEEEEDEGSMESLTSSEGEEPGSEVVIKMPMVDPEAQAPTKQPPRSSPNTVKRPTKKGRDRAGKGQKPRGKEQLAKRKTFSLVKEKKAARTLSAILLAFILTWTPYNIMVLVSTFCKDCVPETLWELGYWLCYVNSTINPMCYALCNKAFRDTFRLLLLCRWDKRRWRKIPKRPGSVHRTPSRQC
Experiment: CHRM1 Ca++ Flux Assay (agonist mode, FDSS 7000EX)
Format: cell-based
Details: for Emax: HEK293, Percent Activity, read-out: M1 FDSS PA; for EC50: geometric mean if tested more than once
In short: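 Compounds tested as agonists at 11 concentrations in triplicate, with calcium traces captured over 3 minutes. Cells were HEK293 with stable human CHRM1 expression, plated overnight at 25K/well and loaded with calcium dye. Responses normalized to carbachol EC100 and fitted by four-parameter nonlinear regression.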

Compound | Emax [%] | EC50 [nM]
c1ccc(C2CCN([C@@H]3CCC4(C3)CN(c3nncs3)C4)CC2)c(OC2COC2)c1 [Example 3A, (R)-2-(6-(4-(2-(oxetan-3-yloxy)phenyl)piperidin-1-yl)-2-azaspiro[3.4]octan-2-yl)-1,3,4-thiadiazole] | 92 | 8
c1ccc(C2CCN([C@@H]3CCC4(C3)CN(c3nncs3)C4)CC2)c(OC[C@H]2COCCO2)c1 [Example 3B, 2-((R)-6-(4-(2-(((R)-1,4-dioxan-2-yl)methoxy)phenyl)piperidin-1-yl)-2-azaspiro[3.4]octan-2-yl)-1,3,4-thiadiazole] | 83 | 51
c1ccc(C2CCN([C@@H]3CCC4(C3)CN(c3nncs3)C4)CC2)c(OC[C@@H]2COCCO2)c1 [Example 3C, 2-((R)-6-(4-(2-(((S)-1,4-dioxan-2-yl)methoxy)phenyl)piperidin-1-yl)-2-azaspiro[3.4]octan-2-yl)-1,3,4-thiadiazole] | 88 | 41
COc1ccccc1C1CCN([C@@H]2CCC3(C2)CN(c2nncs2)C3)CC1 [Example 3D, (R)-2-(6-(4-(2-methoxyphenyl)piperidin-1-yl)-2-azaspiro[3.4]octan-2-yl)-1,3,4-thiadiazole] | 78 | 42
Fc1cccc(C2CCN([C@@H]3CCC4(C3)CN(c3nncs3)C4)CC2)c1OC1COC1 [Example 3E, (R)-2-(6-(4-(3-fluoro-2-(oxetan-3-yloxy)phenyl)piperidin-1-yl)-2-azaspiro[3.4]octan-2-yl)-1,3,4-thiadiazole] | 87 | 54
COCCOc1ccccc1C1CCN([C@@H]2CCC3(C2)CN(c2nncs2)C3)CC1 [Example 3F, (R)-2-(6-(4-(2-(2-methoxyethoxy)phenyl)piperidin-1-yl)-2-azaspiro[3.4]octan-2-yl)-1,3,4-thiadiazole] | 68 | 40
CC(C)(O)COc1ccccc1C1CCN([C@@H]2CCC3(C2)CN(c2nncs2)C3)CC1 [Example 3G, (R)-1-(2-(1-(2-(1,3,4-thiadiazol-2-yl)-2-azaspiro[3.4]octan-6-yl)piperidin-4-yl)phenoxy)-2-methylpropan-2-ol] | 66 | 135
CC(C)(O)CCOc1ccccc1C1CCN([C@@H]2CCC3(C2)CN(c2nncs2)C3)CC1 [Example 3H, (R)-4-(2-(1-(2-(1,3,4-thiadiazol-2-yl)-2-azaspiro[3.4]octan-6-yl)piperidin-4-yl)phenoxy)-2-methylbutan-2-ol] | 84 | 20
COc1ccccc1C1CCN([C@@H]2CCC3(C2)CN(c2ccns2)C3)CC1 [Example 3I, (R)-5-(6-(4-(2-methoxyphenyl)piperidin-1-yl)-2-azaspiro[3.4]octan-2-yl)isothiazole] | 70 | 54
COCCOc1ccccc1C1CCN([C@@H]2CCC3(C2)CN(c2ncns2)C3)CC1 [Example 3J, (R)-5-(6-(4-(2-(2-methoxyethoxy)phenyl)piperidin-1-yl)-2-azaspiro[3.4]octan-2-yl)-1,2,4-thiadiazole] | 58 | 85
CC(C)(O)COc1ccccc1C1CCN([C@@H]2CCC3(C2)CN(c2ncns2)C3)CC1 [Example 3K, (R)-1-(2-(1-(2-(1,2,4-thiadiazol-5-yl)-2-azaspiro[3.4]octan-6-yl)piperidin-4-yl)phenoxy)-2-methylpropan-2-ol] | 57 | 186
CC(C)(O)CCOc1ccccc1C1CCN([C@@H]2CCC3(C2)CN(c2ncns2)C3)CC1 [Example 3L, (R)-4-(2-(1-(2-(1,2,4-thiadiazol-5-yl)-2-azaspiro[3.4]octan-6-yl)piperidin-4-yl)phenoxy)-2-methylbutan-2-ol] | 67 | 62
COc1ccccc1C1CCN([C@@H]2CCC3(C2)CN(c2nc(C)ns2)C3)CC1 [Example 3M, (R)-5-(6-(4-(2-methoxyphenyl)piperidin-1-yl)-2-azaspiro[3.4]octan-2-yl)-3-methyl-1,2,4-thiadiazole] | 0 | > 25000
Fc1cncc(N2CC3(CC[C@@H](N4CCC(c5ccccc5C5CCOCC5)CC4)C3)C2)c1 [Example 5AA, (R)-2-(5-fluoropyridin-3-yl)-6-(4-(2-(tetrahydro-2H-pyran-4-yl)phenyl)piperidin-1-yl)-2-azaspiro[3.4]octane] | 61 | 102
c1ccc(C2CCN([C@@H]3CCC4(C3)CN(c3cncnc3)C4)CC2)c(C2CCOCC2)c1 [Example 5BB, (R)-2-(pyrimidin-5-yl)-6-(4-(2-(tetrahydro-2H-pyran-4-yl)phenyl)piperidin-1-yl)-2-azaspiro[3.4]octane] | 72 | 201
Fc1ccc(N2CC3(CC[C@@H](N4CCC(c5ccccc5C5CCOCC5)CC4)C3)C2)cn1 [Example 5CC, (R)-2-(6-fluoropyridin-3-yl)-6-(4-(2-(tetrahydro-2H-pyran-4-yl)phenyl)piperidin-1-yl)-2-azaspiro[3.4]octane] | 36 | 335
COc1ccccc1C1CCN([C@@H]2CCC3(C2)CN(c2cnc(C)cn2)C3)CC1 [Example 5DD, (R)-6-(4-(2-methoxyphenyl)piperidin-1-yl)-2-(5-methylpyrazin-2-yl)-2-azaspiro[3.4]octane] | 0 | 1260
Cc1nccnc1N1CC2(CC[C@@H](N3CCC(c4ccccc4OCC(C)(C)O)CC3)C2)C1 [Example 5T, (R)-2-methyl-1-(2-(1-(2-(3-methylpyrazin-2-yl)-2-azaspiro[3.4]octan-6-yl)piperidin-4-yl)phenoxy)propan-2-ol] | 34 | 537
CC(C)(O)COc1ccccc1C1CCN([C@@H]2CCC3(C2)CN(c2ncncn2)C3)CC1 [Example 5U, (R)-1-(2-(1-(2-(1,3,5-triazin-2-yl)-2-azaspiro[3.4]octan-6-yl)piperidin-4-yl)phenoxy)-2-methylpropan-2-ol] | 2 | 672
COc1ccc(F)cc1C1CCN([C@@H]2CCC3(C2)CN(c2ccnnc2)C3)CC1 [Example 5V, (R)-6-(4-(5-fluoro-2-methoxyphenyl)piperidin-1-yl)-2-(pyridazin-4-yl)-2-azaspiro[3.4]octane] | 60 | 215
Fc1cccc(C2CCN([C@@H]3CCC4(C3)CN(c3cncnc3)C4)CC2)c1OC1COC1 [Example 5W, (R)-6-(4-(3-fluoro-2-(oxetan-3-yloxy)phenyl)piperidin-1-yl)-2-(pyrimidin-5-yl)-2-azaspiro[3.4]octane] | 60 | 52
COCCOc1ccccc1C1CCN([C@@H]2CCC3(C2)CN(c2cccnn2)C3)CC1 [Example 5X, (R)-6-(4-(2-(2-methoxyethoxy)phenyl)piperidin-1-yl)-2-(pyridazin-3-yl)-2-azaspiro[3.4]octane] | 0 | > 25000
COCCOc1ccccc1C1CCN([C@@H]2CCC3(C2)CN(c2cnc(C)cn2)C3)CC1 [Example 5Y, (R)-6-(4-(2-(2-methoxyethoxy)phenyl)piperidin-1-yl)-2-(5-methylpyrazin-2-yl)-2-azaspiro[3.4]octane] | 0 | > 25000
COCCOc1ccccc1C1CCN([C@@H]2CCC3(C2)CN(c2ccnnc2)C3)CC1 [Example 5Z, (R)-6-(4-(2-(2-methoxyethoxy)phenyl)piperidin-1-yl)-2-(pyridazin-4-yl)-2-azaspiro[3.4]octane] | 21 | 413
